In US12653836B2, “Ketogenic diet and ketone supplementation for cancer therapy” (The Trustees of Princeton University, priority 2020, dated 2026):

Assay: Isotope tracer infusion: circulatory turnover flux (Fcirc)
Assay type: in vivo, mouse
Details: fasted mice
From the text: To confirm this idea, and to test whether the same might be true of circulating 3HB and acetoacetate, a set of isotope-tracer infusion experiments was devised. The circulatory turnover flux (Fcirc) of a given metabolite refers to the rate at which tissues collectively take up the metabolite from arterial circulation; alternatively, Fcirc can be defined as the rate at which tissues collectively excrete the metabolite into the venous circulation, as these two rates are equal at steady state in minimally perturbative tracer infusions.
Isotope tracer infusion. For lactate circulatory turnover flux measurements, 10-14 weeks old C57BL/6 mice were catheterized via both left carotid artery and right jugular vein, as non-perturbative arterial blood sampling is required for precise measurement of circulating lactate labeling. Mice were allowed to recover for 5 days. Mice were fasted from ZT2 to ZT6.5. Sodium [2-^2H] or [U-^13C]lactate solution was diluted to 5% w/w in water, and infused into the double catheterized mice from ZT6.5 to ZT9 to pseudo steady state. Arterial blood was sampled to calculate the turnover rate for ^2H or ^13C lactate.
For other tracing experiments, 10-14 weeks old C57BL6/J mice or mice bearing tumors (KPC flank allografts or Kras^LSL-G12D/+Trp53^−/−Pdx-1-Cre GEMM, tumor sizes ˜150 mm^3) were catheterized via right jugular vein. Mice were allowed to recover from surgery for 3-5 days. For 3HB circulatory turnover flux experiments, mice were fasted from ZT2 to ZT6.5, and [3,4,4,4-^2H] or [U-^13C]3HB were infused to catheterized mice from ZT6.5 to ZT9. Tail blood was sampled to calculate the turnover rate for ^2H or ^13C 3HB.
Metabolic flux quantitation. Circulatory turnover flux, Fcirc was calculated as previously described (Hui et al., 2017), using arterial serum for lactate due to its substantial arterial-venous labeling gradient and tail vein serum for other nutrients:
[formula] R is the infusion rate of the labeled tracer and L is the fractional enrichment of infused labeled form of the metabolite tracer. Fcirc values of ^2H-labeled metabolites were corrected for kinetic isotope effect (KIE, determined from the enzymatic assays) by multiplying the observed Fcirc by KIE value of ^2H tracer.

Row | circulatory turnover flux | SMILES
1 | ~40 nmol/g/min | [2H]C([2H])([2H])C([2H])(O)CC(=O)O (stereo not shown) [^2H-labeled 3HB, [3,4,4,4-^2H]3HB]
2 | 380 nmol/g/min | [13CH3][13CH](O)[13C](=O)[O-].[Na+] (stereo not shown) [^13C-labeled lactate, Sodium [U-^13C]lactate]
3 | 550 nmol/g/min | [2H]C(C)(O)C(=O)[O-].[Na+] (stereo not shown) [^2H-labeled lactate, Sodium [2-^2H]lactate]
4 | ~40 nmol/g/min | [13CH3][13CH](O)[13CH2][13C](=O)O (stereo not shown) [^13C-labeled 3HB, [U-^13C]3HB]
